Data set [1] concerns lettuce (Lactuca sativa cv. L. Iceberg). The data set is described as follows: initial phytotoxicity bioassay, lettuce. In kind it is in vivo. The conditions noted are these: for Phytotoxic activity ranking: visual scale 0 to 5, 0 = no effect, 5 = no growth; for growth inhibition (in words): 1 mg/mL (highest concentration).
Data set [2] concerns bentgrass (Agrostis stolonifera). The data set is described as follows: initial phytotoxicity bioassay, bentgrass. In kind it is in vivo. The conditions noted are these: for Phytotoxic activity ranking: visual scale 0 to 5, 0 = no effect, 5 = no growth; for growth inhibition (in words): 1 mg/mL (highest concentration).
A short description of data set [3]: cytotoxicity to KB cells. In kind it is cell-based. The conditions noted are these: human.
The nature of data set [4]: cytotoxicity to SK-MEL cells. The conditions noted are these: human. In kind it is cell-based.
Data set [5] in a line: cytotoxicity to LLC-PK11 cells. The data set is classed as cell-based. The note with it: pig.
Data set [6] relates to W2 (chloroquin resistant) strain of P. falciparum. The data set is described as follows: in vitro antiplasmodial activity, W2 clone. The data set is classed as cell-based, Plasmodium falciparum. The conditions noted are these: for IC50: Plasmodium falciparum, W2, 72 h, read-out: W2-clone IC50; for antiplasmodial activity (in words): W2 strain.
Data set [7] is described as follows: cytotoxicity to BT-549 cells. The data set is classed as cell-based. The conditions noted are these: human.
For data set [8], the system named is D6 (chloroquin sensitive) strain of P. falciparum. The data set is described as follows: in vitro antiplasmodial activity, D6 clone. The data set is classed as cell-based, Plasmodium falciparum. The conditions noted are these: for antiplasmodial activity (in words): D6 strain; for IC50: Plasmodium falciparum, D6, 72 h, read-out: D6-clone IC50.
A short description of data set [9]: cytotoxicity to SK-OV-3 cells. The data set is classed as cell-based. The note with it: human.
The subject of data set [10] is wheat coleoptile. The note with it: cited from earlier work.
In data set [11] the test system is duckweed (Lemna pausicostata). The data set is described as follows: duckweed growth bioassay. The conditions noted are these: 168 h, read-out: I50, growth of duckweed. In kind it is in vivo.
The test system of data set [12] is a number of plant species. The conditions noted are these: cited from earlier work.
Data set [13] is described as follows: cytotoxicity to Vero cells. In kind it is cell-based. The note with it: African green monkey, Vero cells (kidney fibroblast).
Setting [14] is: KB cells (oral epidermal carcinoma).
[15] abbreviates: LLC-PK11 cells (kidney epithelial).
Setting [16] is: BT-549 cells (breast ductal carcinoma).
Where [17] appears, read: SK-OV-3 cells (ovary carcinoma).

Values after ≈ are worked out from the molar mass of the structure shown.

Regarding `C[C@]12C=C[C@H](O)[C@]3(C)C(=O)O[C@@H](C13)[C@H]1O[C@]13COC(=O)C=C32` (some centres unmarked) [Compound 1], the Phytotoxic activity ranking was 5 in data set [1] (0.01 mg/mL); 5 in [1] (0.1 mg/mL); 5 in data set [1] (1.0 mg/mL); 4 in data set [2] (0.01 mg/mL); 5 in data set [2] (0.1 mg/mL); 5 in data set [2] (1.0 mg/mL).

`C[C@]12CC[C@@H](O)[C@]3(C)C(=O)O[C@@H](C13)[C@H]1O[C@]13COC(=O)C=C32` (some centres unmarked) [Compound 3]: the IC50 at 48 h in data set [3], in data set [4], in data set [5], in data set [7] and in [9] was over 10 µg/mL in each case. Besides, the Phytotoxic activity ranking was determined as 0 in data set [1] (0.001 mg/mL); 0 in [1] (0.01 mg/mL); 4 in [1] (0.1 mg/mL); 5 in data set [1] (1.0 mg/mL); 0 in [2] (0.001 mg/mL); 0 in data set [2] (0.01 mg/mL). Further, the results for the Phytotoxic activity ranking in data set [2] (0.1 mg/mL) and in [2] (1.0 mg/mL) were 4 and 5, respectively. In addition, the “growth inhibition (in words)” value in data set [1] and in data set [2] was “total inhibition of growth” throughout. Further, the IC50 in data set [6] and in [8] was over 4.76 µg/mL each time. The “antiplasmodial activity (in words)” value in data set [6] and in data set [8] was “inactive” in each case.

For the compound `C[C@@]12C[C@@H](O)C[C@]3(C)C4=CC(=O)OCC4=C[C@@H](OC1=O)C23` (some centres unmarked) [Compound 9], the “inhibition of wheat coleoptile elongation (in words)” value in data set [10] is “weak inhibitor”. Moreover, the Phytotoxic activity ranking in data set [1] (0.01 mg/mL) stood at 2; in data set [1] (0.1 mg/mL) it was 5; in data set [1] (1.0 mg/mL), 5; in [2] (0.001 mg/mL) it was 2; in data set [2] (0.01 mg/mL), 3; in data set [2] (0.1 mg/mL), 5. The compound further displayed a Phytotoxic activity ranking in [2] (1.0 mg/mL) of 5. Further, the values for the IC50 in [6] and in data set [8] were 0.084 µg/mL (≈ 0.289 µM) and 0.097 µg/mL (≈ 0.334 µM), respectively.

`C[C@@]12CCC[C@]3(C)C4=CC(=O)OCC4=C[C@@H](OC1=O)C23` (some centres unmarked) [Compound 11]: the Phytotoxic activity ranking worked out at 0 in data set [1] (0.001 mg/mL); 2 in data set [1] (0.01 mg/mL); 5 in data set [1] (0.1 mg/mL); 5 in data set [1] (1.0 mg/mL); 0 in [2] (0.001 mg/mL); 3 in [2] (0.01 mg/mL). Moreover, the Phytotoxic activity ranking in [2] (0.1 mg/mL) and in data set [2] (1.0 mg/mL) was 5 in each case. Besides, in data set [11], the IC50 was 0.39 to 0.95 µM. In addition, the “phytotoxicity (in words)” value in data set [12] was “potent phytotoxin”.

Take `C[C@@]12C=CC[C@]3(C)C(=O)O[C@H](C=C4COC(=O)C=C41)C23` (some centres unmarked) [Compound 7]: the Phytotoxic activity ranking in data set [1] (0.001 mg/mL) is 0; in [1] (0.01 mg/mL), 1; in data set [1] (0.1 mg/mL), 5; in data set [1] (1.0 mg/mL), 5; in data set [2] (0.001 mg/mL), 0; in data set [2] (0.1 mg/mL) it was 5. Besides, the Phytotoxic activity ranking in [2] (1.0 mg/mL) is on record as 5. Also, the IC50 in data set [11] was 0.39 to 0.95 µM; in data set [8], 0.17 µg/mL (≈ 0.624 µM).

As to `C[C@@]12CC[C@@H](O)[C@]3(C)C(=O)O[C@H](C=C4COC(=O)C=C41)C23` (some centres unmarked) [Compound 8], the IC50 at 48 h in data set [3], in [4], in data set [5], in [7] and in data set [9] was over 10 µg/mL throughout. For the same compound, the Phytotoxic activity ranking is reported as 0 in [1] (0.001 mg/mL); 0 in data set [1] (0.01 mg/mL); 2 in data set [1] (0.1 mg/mL); 5 in [1] (1.0 mg/mL); 0 in data set [2] (0.001 mg/mL); 0 in [2] (0.01 mg/mL). Moreover, the Phytotoxic activity ranking in data set [2] (0.1 mg/mL) was found to be 3; in data set [2] (1.0 mg/mL), 5. In addition, the “growth inhibition (in words)” value in [1] and in data set [2] was “total inhibition of growth” in each case. Further, the “antiplasmodial activity (in words)” value in data set [6] and in data set [8] was “inactive” in each case.

With `C[C@@]12CC[C@@H](O)[C@]3(C)C4=CC(=O)OC[C@]45O[C@@H]5[C@@H](OC1=O)C23` (some centres unmarked) [Compound 5], the IC50 at 48 h in data set [3] (setting [14]), in data set [5] (setting [15]), in data set [7] (setting [16]) and in data set [9] (setting [17]) was over 10 µg/mL each time. The Phytotoxic activity ranking in data set [1] (0.001 mg/mL) was found to be 1; in data set [1] (0.01 mg/mL), 4; in [1] (0.1 mg/mL) it was 5; in [1] (1.0 mg/mL) it was 5; in [2] (0.001 mg/mL), 0; in [2] (0.01 mg/mL), 4. Moreover, the Phytotoxic activity ranking in data set [2] (0.1 mg/mL) and in [2] (1.0 mg/mL) was 5 throughout. For the same compound, the “antiplasmodial activity (in words)” value in data set [6] and in [8] was “inactive” each time.

Consider `C[C@]12CCC[C@](C)(C(=O)O)[C@@H]1C=C[C@]1(O)COC(=O)C[C@H]21` [Compound 12, oidiolactone-E], for which the Phytotoxic activity ranking in [1] (0.001 mg/mL) came out at 0; in [1] (0.01 mg/mL) it was 2; in data set [1] (0.1 mg/mL) it was 4; in data set [1] (1.0 mg/mL), 5; in data set [2] (0.001 mg/mL) it was 0; in data set [2] (0.01 mg/mL), 1. Further, the Phytotoxic activity ranking amounted to 4 in [2] (0.1 mg/mL) and 5 in data set [2] (1.0 mg/mL).

Turning to `C[C@]12C=CC[C@]3(C)C(=O)O[C@@H](C13)[C@H]1O[C@]13COC(=O)C=C32` (some centres unmarked) [Compound 2], the IC50 at 48 h in data set [3] and in [9] was over 10 µg/mL throughout. The Phytotoxic activity ranking in data set [1] (0.001 mg/mL) was 0; in data set [1] (0.01 mg/mL), 3; in [1] (0.1 mg/mL) it was 5; in [1] (1.0 mg/mL) it was 5; in data set [2] (0.001 mg/mL) it was 1; in [2] (0.01 mg/mL), 4. The Phytotoxic activity ranking in data set [2] (0.1 mg/mL) and in data set [2] (1.0 mg/mL) was 5 each time. In addition, the IC50 in data set [11] lay in the range of 0.39 to 0.95 µM.

In the case of `CCN(CC)CCCC(C)Nc1ccnc2cc(Cl)ccc12` (centres unmarked) [chloroquine, reference compound], in data set [6], the IC50 is 0.1 µg/mL (≈ 0.313 µM).

In the case of `C[C@@]12C[C@@H](O)C[C@]3(C)C4=CC(=O)OC[C@]45O[C@@H]5[C@@H](OC1=O)C23` (some centres unmarked) [Compound 4], the Phytotoxic activity ranking in data set [1] (0.001 mg/mL) was 0; in [1] (0.01 mg/mL) it was 3; in data set [1] (0.1 mg/mL), 5; in [1] (1.0 mg/mL) it was 5; in [2] (0.001 mg/mL), 0; in [2] (0.01 mg/mL), 2. In addition, the Phytotoxic activity ranking in data set [2] (0.1 mg/mL) and in [2] (1.0 mg/mL) was 5 each time. Besides, the IC50 in [6] was 0.82 µg/mL (≈ 2.68 µM).

Consider `C[C@@]12C=C[C@H](O)[C@]3(C)C(=O)O[C@H](C=C4COC(=O)C=C41)C23` (some centres unmarked) [Compound 6], for which the Phytotoxic activity ranking in data set [1] (0.001 mg/mL) came to 0; in data set [1] (0.01 mg/mL), 5; in [1] (0.1 mg/mL), 5; in data set [1] (1.0 mg/mL) it was 5; in [2] (0.001 mg/mL), 0; in data set [2] (0.01 mg/mL), 4. In addition, the Phytotoxic activity ranking in [2] (0.1 mg/mL) and in data set [2] (1.0 mg/mL) was 5 each time. Moreover, the values for the IC50 in data set [11] and in [8] were 0.39 to 0.95 µM and 0.043 µg/mL (≈ 0.149 µM), respectively.

With `C[C@@]12CC[C@@H](O)[C@]3(C)C4=CC(=O)OCC4=C[C@@H](OC1=O)C23` (some centres unmarked) [Compound 10], the Phytotoxic activity ranking in [1] (0.001 mg/mL) was 0; in data set [1] (0.01 mg/mL) it was 1; in data set [1] (0.1 mg/mL) it was 5; in data set [1] (1.0 mg/mL), 5; in data set [2] (0.001 mg/mL), 0; in data set [2] (0.01 mg/mL), 1. Moreover, the Phytotoxic activity ranking in [2] (0.1 mg/mL) and in data set [2] (1.0 mg/mL) was 5 each time.

`C=C1C(O)CC2[C@](C)(CCC[C@]2(C)C(=O)O)C1CC(=O)O` (some centres unmarked) [Compound 13]: the IC50 at 48 h in [3] (setting [14]) was over 10 µg/mL; in data set [4] (SK-MEL cells (malignant melanoma)) it was over 10 µg/mL; in [13], over 4.76 µg/mL; in data set [5] (setting [15]) it was over 10 µg/mL; in [7] (setting [16]), over 10 µg/mL; in data set [9] (setting [17]), over 10 µg/mL. Further, the Phytotoxic activity ranking was determined as 0 in data set [1] (0.001 mg/mL); 0 in [1] (0.01 mg/mL); 0 in data set [1] (0.1 mg/mL); 1 in data set [1] (1.0 mg/mL); 0 in [2] (0.001 mg/mL); 0 in data set [2] (0.01 mg/mL). Also, the Phytotoxic activity ranking in data set [2] (0.1 mg/mL) and in data set [2] (1.0 mg/mL) was 0 each time. Besides, the “growth inhibition (in words)” value in [1] and in [2] was “inactive” each time. In addition, the IC50 in data set [6] and in data set [8] was over 4.76 µg/mL in each case. Moreover, the “antiplasmodial activity (in words)” value in [6] and in data set [8] was “inactive” throughout.

The values above are taken from PMC2856487 (Journal of natural products, 2009).
